Assay results reported in PubChem BioAssay (NCI).
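How tested: cells in 96-well plates exposed to compound for 48 hours at five concentrations. At the GI50, growth is halved. TGI marks complete inhibition of growth.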

What was measured:
Test in all cases: DTP human tumour cell line panel, 48 h
[1] = tested on: A498 renal
[2] = tested on: HL-60(TB) leukemia
[3] = tested on: K-562 leukemia
[4] = tested on: M14 melanoma
[5] = tested on: NCI-H226 lung
[6] = tested on: NCI-H522 lung
[7] = tested on: OVCAR-3 ovarian
[8] = tested on: OVCAR-4 ovarian
[9] = tested on: SF-295 CNS
[10] = tested on: TK-10 renal

SMILES | GI50 [1] [µM] | TGI [1] [µM] | GI50 [2] [µM] | TGI [2] [µM] | GI50 [3] [µM] | TGI [3] [µM] | GI50 [4] [µM] | TGI [4] [µM] | GI50 [5] [µM] | TGI [5] [µM] | GI50 [6] [µM] | TGI [6] [µM] | GI50 [7] [µM] | TGI [7] [µM] | GI50 [8] [µM] | TGI [8] [µM] | GI50 [9] [µM] | TGI [9] [µM] | GI50 [10] [µM] | TGI [10] [µM]
Cc1ccc(S(=O)(=O)NCCNC2=CC(=O)c3nc4ccccc4c4ccnc2c34)cc1 | 24.1 | 53.1 | 28.1 | > 100 | 25 | > 100 | 15.7 | 58.2 | 22.2 | 54.4 | 15 | 37.3 | 17.5 | 46.4 | 26.8 | > 100 | 17.7 | 39 | 20.2 | 40.1
COc1ccc2c(c1)C(=O)c1c-2n(CCCN=[N+]=[N-])c(=O)c2cc(N(C)C)ccc12 | > 100 | > 100 | > 100 | > 100 | > 100 | > 100 | > 100 | > 100 | > 100 | > 100 | 11.2 | 92.4 | > 100 | > 100 | > 100 | > 100 | > 100 | > 100 | > 100 | > 100
CN(C)c1ccc([O-])cc1.CN(C)c1ccc([O-])cc1.CN(C)c1ccc([O-])cc1.CN(C)c1ccc([O-])cc1.[Ti+4] | 19.4 | > 100 | 27.5 | > 100 | 37.9 | > 100 | > 100 | > 100 | > 100 | > 100 | 33.2 | 98.2 | > 100 | > 100 | 75.3 | > 100 | > 100 | > 100 | > 100 | > 100
CCCCS(=O)CCC(N)C(=O)O (centres undefined) |  | > 100 |  | > 100 |  | > 100 |  | > 100 |  | > 100 |  | > 100 |  | > 100 |  | > 100 |  | > 100 |  | > 100
COc1ccc2c(c1)/C(=C\c1cccnc1)C(=O)N2 | 23.4 | 49.8 | 24.7 | > 100 | 13.8 | > 100 | 31 | 83.8 | 7.38 | 23.6 | 17.8 | 64 | 40.5 | > 100 | 38.2 | > 100 | 13.4 | 60.4 | 18.5 | 44.6
COc1ccccc1/C=C1\CCC(CCN(C)C)(C2=CCCC2)C1=O (centres undefined) |  | 32.1 |  | 45.5 |  | 56.2 |  | 31.3 |  | 40.5 |  | 27.1 |  | 40.6 |  | 35.2 |  | 31.7 |  | 37.5
O=C(Nc1cccc([N+](=O)[O-])c1)C(=O)C(C(=O)c1ccccc1-c1ccccc1)C1OC(=O)c2ccccc21 (centres undefined) |  | 60.2 |  | 56.5 |  | > 100 |  | 41.1 |  | 25.9 |  | 26.2 |  | 36.4 |  |  |  | 66.5 |  | 61.5
O=[N+]([O-])c1ccc(S(=O)Cc2ccccc2)c([N+](=O)[O-])c1 (centres undefined) | 13 | 25.7 | 2.21 | 5.2 | 2.56 | 6.65 | 1.81 | 4.84 | 2.27 | 5.3 | 1.32 | 2.94 | 1.84 | 3.24 | 1.5 | 2.93 | 13.2 | 26.9 | 1.78 | 3.16
O=C1c2ccc([N+](=O)[O-])cc2-c2c1c1ccccc1c(=O)n2CCCNCCCNCCCn1c2c(c3ccc([N+](=O)[O-])cc3c1=O)C(=O)c1ccccc1-2 | 2.05 | 8.88 | 2.09 | 7.48 | 0.539 | 1.97 | 13.6 | 33.9 | 1.57 | 8.53 | 7.1 | 32.3 | 2.2 | 6.16 | 1.06 | 2.88 | 2.23 | 20.7 | 5.32 | 33.9
C=C1SC(=Nc2c(C)cc(C)cc2C)N(C(=O)c2sc3ccccc3c2Cl)C12CCCCC2 | > 100 | > 100 | 16.5 | > 100 | 54.5 | > 100 | > 100 | > 100 | > 100 | > 100 | 28.6 | > 100 | 88.7 | > 100 | > 100 | > 100 | 42.3 | > 100 | > 100 | > 100
CC(=O)OCC1OC(n2c3c(c(-c4cccc5ccccc45)c(C#N)c2=S)CCCC3)C(OC(C)=O)C(OC(C)=O)C1OC(C)=O (centres undefined) |  | > 100 |  | > 100 |  | > 100 |  | > 100 |  | > 100 |  | > 100 |  | > 100 |  | > 100 |  | > 100 |  | > 100
Clc1ccc(Cc2nc3ccccc3s2)c(Cl)c1 |  | 41.5 |  | 35.3 |  | 36.2 |  | 31.3 |  | 39.1 |  | 30.9 |  | 33 |  | 27 |  | 31.8 |  | 38.4
COc1cc2c(c(OC)c1OC)-c1ccc(N)c(=O)cc1[C@@H](NC(C)=O)CC2 | 0.0297 |  | 0.0171 |  | < 0.014 | > 100 | 0.0208 |  | 0.0852 |  | < 0.0114 | < 0.021 | < 0.012 | 0.0362 | 0.0542 | > 100 | 0.0339 |  | 0.0852 | > 100
CCCCC1CC(c2cccc([N+](=O)[O-])c2)=NO1 (centres undefined) |  | > 100 |  | > 100 |  | > 100 |  | > 100 |  | > 100 |  | > 100 |  | > 100 |  | > 100 |  | > 100 |  | > 100
COc1ccc(Nc2ncc(Br)c(NCCCNC(=O)C3CCC3)n2)cc1 | 12.3 | 27.2 | 5.59 | 45.8 | 9.27 | > 100 | 31.5 | > 100 | 4.8 | 37.7 | 24 | > 100 | 16.5 | 48.5 | 11.3 | 56 | 11 | 89.4 | 5.46 | 38.7
